Data taken from ChEMBL document CHEMBL1152524, “Preparation of C-23 esterified silybin derivatives and evaluation of their lipid peroxidation inhibitory and DNA protective properties” (Bioorg Med Chem, 2009).
Activity calls are given as the source filed them. The rule behind the calls is not given here.

Tests used:
[1] = Antioxidant activity assessed as protection against H2O2-induced pcDNA3.1(+) scission at 100 ug/mL after 30 mins by […] staining-based gel electrophoresis; assay type: functional
[2] = Antioxidant activity assessed as ferrous ion chelating activity after 30 mins by spectrophotometry; assay type: functional
[3] = tested on: Radical scavenging activity; assay: Antioxidant activity assessed as DPPH radical scavenging activity at 100 ug/mL after 30 mins; assay type: functional
Liver = assay: Inhibition of FeSO4-induced lipid peroxidation in Sprague-Dawley rat liver homogenate assessed as decrease in malondialdehyde level after 1 hr by TBA assay; assay type: functional, tissue-based
[4] = Antioxidant activity assessed as superoxide anion scavenging activity at 100 ug/mL after 5 mins by NBT reduction assay; assay type: functional
[5] = tested on: Radical scavenging activity; assay: Antioxidant activity assessed as DPPH radical scavenging activity after 30 mins; assay type: functional
[6] = Antioxidant activity assessed as protection against H2O2-induced pcDNA3.1(+) scission after 30 mins by […] staining-based gel electrophoresis; assay type: functional
[7] = Antioxidant activity assessed as superoxide anion scavenging activity after 5 mins by NBT reduction assay; assay type: functional

| SMILES | Activity [1] | EC50 [2] [µM] | Activity [3] [%] | IC50 (Liver) [µM] | Activity [4] | EC50 [5] [µM] | Activity [6] | Activity (Liver) | EC50 [7] [µM] |
| --- | --- | --- | --- | --- | --- | --- | --- | --- | --- |
| COc1ccc(C(=O)OCC2Oc3ccc([C@H]4Oc5cc(O)cc(O)c5C(=O)[C@@H]4O)cc3OC2c2ccc(O)c(OC)c2)cc1 (relative stereo) | inactive | 73.3 | 37.1 | 21 | 6.5% | – | – | – | – |
| COc1cc(C2Oc3cc([C@H]4Oc5cc(O)cc(O)c5C(=O)[C@@H]4O)ccc3OC2COC(=O)c2ccc(N)cc2)ccc1O (relative stereo) | inactive | 128 | 16.4 | 14.3 | 43.3% | – | – | – | – |
| COc1cc(C2Oc3cc([C@H]4Oc5cc(O)cc(O)c5C(=O)[C@@H]4O)ccc3OC2COC(=O)c2cc(OC)c(OC)c(OC)c2)ccc1O (relative stereo) | Active | 94.8 | 52.6 | 25.7 | 36.1% | 145 | Dose-dependent effect | – | – |
| COc1cc(C2Oc3cc([C@H]4Oc5cc(O)cc(O)c5C(=O)[C@@H]4O)ccc3OC2COC(=O)c2cc(N)cc([N+](=O)[O-])c2)ccc1O (some centres not stated) | inactive | > 300 | 59.9 | 0.2 | 54.3% | 127 | – | Dose-dependent effect | 129 |
| CCOC(=O)CC(=O)OCC1Oc2ccc([C@H]3Oc4cc(O)cc(O)c4C(=O)[C@@H]3O)cc2OC1c1ccc(O)c(OC)c1 (relative stereo) | Active | 101 | 16.2 | 33.4 | 60.1% | – | – | – | 113 |
| COc1cc(C2Oc3cc([C@H]4Oc5cc(O)cc(O)c5C(=O)[C@@H]4O)ccc3OC2COC(=O)c2ccc3c(c2)OCO3)ccc1O (relative stereo) | inactive | 108 | 31.7 | 20.8 | 7.3% | – | – | – | – |
| COc1cc(C2Oc3cc([C@H]4Oc5cc(O)cc(O)c5C(=O)[C@@H]4O)ccc3OC2COC(=O)/C=C/c2ccc(Br)cc2)ccc1O (relative stereo) | Active | 88.9 | 19.8 | 16.3 | 6.5% | – | Dose-dependent effect | – | – |
| COc1cc(C2Oc3cc([C@H]4Oc5cc(O)cc(O)c5C(=O)[C@@H]4O)ccc3OC2COC(=O)c2ccc([N+](=O)[O-])cc2)ccc1O (relative stereo) | inactive | > 300 | 38.6 | 12.6 | inactive | – | – | – | – |
| COc1cc(C2Oc3cc([C@H]4Oc5cc(O)cc(O)c5C(=O)[C@@H]4O)ccc3OC2COC(=O)c2cc([N+](=O)[O-])cc([N+](=O)[O-])c2)ccc1O (relative stereo) | inactive | 205 | 22.1 | 14.6 | 32% | – | – | – | – |
| COc1cc(C2Oc3cc([C@H]4Oc5cc(O)cc(O)c5C(=O)[C@@H]4O)ccc3OC2COC(=O)c2cccc(Cl)c2)ccc1O (some centres not stated) | Active | 106 | 5.6 | 14.2 | 7% | – | – | – | – |
| O=c1c(O)c(-c2ccc(O)c(O)c2)oc2cc(O)cc(O)c12 [QUERCETIN] | – | 236 | 96.8 | 1.8 | 93.8% | 5.5 | – | Dose-dependent effect | 31.8 |
| COc1cc(C2Oc3cc([C@H]4Oc5cc(O)cc(O)c5C(=O)[C@@H]4O)ccc3OC2COC(=O)/C=C/c2ccc(Cl)cc2)ccc1O (relative stereo) | Active | 87.9 | 18.4 | 12 | 9.1% | – | Dose-dependent effect | – | – |
| COc1cc(C2Oc3cc([C@H]4Oc5cc(O)cc(O)c5C(=O)[C@@H]4O)ccc3OC2COC(=O)c2ccc(OC)c(OC)c2)ccc1O (mixture of isomers) | Active | 77 | 34.2 | 16 | 37.2% | – | Dose-dependent effect | – | – |
| COc1cc(C2Oc3cc([C@H]4Oc5cc(O)cc(O)c5C(=O)[C@@H]4O)ccc3OC2COC(=O)c2ccccc2)ccc1O (relative stereo) | Active | 105 | 40.4 | 12.7 | inactive | – | Dose-dependent effect | – | – |
| COc1cc(C2Oc3cc([C@H]4Oc5cc(O)cc(O)c5C(=O)[C@@H]4O)ccc3OC2CO)ccc1O (some centres not stated) [SILIBININ] | – | 196 | 16.6 | 22.7 | 38.2% | – | – | – | – |
| COc1cc(C2Oc3cc([C@H]4Oc5cc(O)cc(O)c5C(=O)[C@@H]4O)ccc3OC2COC(=O)/C=C/c2ccc(C)cc2)ccc1O (relative stereo) | Active | 136 | 33.3 | 14.7 | 7.3% | – | – | – | – |
| O=C([O-])CN(CCN(CC(=O)[O-])CC(=O)O)CC(=O)O.[Na+].[Na+] [EDETATE DISODIUM ANHYDROUS] | – | 16.2 | – | – | – | – | – | – | – |
